Assay results as given in patent publication US20260001914A1, “MACROCYCLIC PEPTIDES TARGETING KRAS” (Merck Sharp & Dohme LLC, priority 2022, published 2026).
*1 amine or outer side, *2 acyl side, *3 side chain or, on linkers, in order; H or OH if unused. Where a SMILES comes first, the peptide text is derived from it. Bridges are numbered along the chain shown (N, C = ends). [ ]: non-standard residue; d: D form. Phe(4-guanidino) = N=C(N)Nc1ccc(C[C@H](N)C(=O)O)cc1; X18 = CNC(=N)N(C)c1ccc(C[C@H](N[*:1])C(=O)[*:2])cc1; Ala(pyrimidin-5-yl) = N[C@@H](Cc1cncnc1)C(=O)O; Gly(N-(CH2)3-guanidino) = N=C(N)NCCCNCC(=O)O; NMe3Pal(6-Me) = CN[C@@H](Cc1ccc(C)nc1)C(=O)O; X8 = CN([C@@H](Cc1ccc(F)nc1)C(=O)[*:2])[*:1]; NMeHis(τ-Me) = CN[C@@H](Cc1cn(C)cn1)C(=O)O; X14 = O=C([C@H](Cc1c(F)cncc1F)N[*:1])[*:2]; X25 = O=C([C@H](Cc1ccc(F)nc1)N[*:1])[*:2]; Leu(4,5-dehydro) = C=C(C)C[C@H](N)C(=O)O; X11 = CC(C)(F)CC[C@H](N[*:1])C(=O)[*:2]; NMeAha = CN[C@@H](CCN=[N+]=[N-])C(=O)O; Phe(3-F) = N[C@@H](Cc1cccc(F)c1)C(=O)O; Phe(4-F) = N[C@@H](Cc1ccc(F)cc1)C(=O)O; X2 = O=C([C@H](Cc1ccccc1F)O[*:1])[*:2]; NHCH2CH2SCH2CO = O=C(CSCCN[*:1])[*:2]; X61 = O=C(C12COC(CN[*:1])(C1)C2)[*:2]; Phe(2-F) = N[C@@H](Cc1ccccc1F)C(=O)O; NMe3Pal = CN[C@@H](Cc1cccnc1)C(=O)O; X1 = O=C(C12CC(CN[*:1])(C1)C2)[*:2]; NMeOrn(Me) = CNCCC[C@H](NC)C(=O)O; Ala(cPr) = N[C@@H](CC1CC1)C(=O)O; NMeF = CN[C@@H](Cc1ccccc1)C(=O)O; PhLac = O=C(O)[C@@H](O)Cc1ccccc1; 3Pal = N[C@@H](Cc1cccnc1)C(=O)O; d3Pal = N[C@H](Cc1cccnc1)C(=O)O; Ahp(2) = CCCCC[C@H](N)C(=O)O; Cba = N[C@@H](CC1CCC1)C(=O)O; hLeu = CC(C)CC[C@H](N)C(=O)O; NMeAbu = CC[C@H](NC)C(=O)O; αMeC = C[C@](N)(CS)C(=O)O; NMeA = CN[C@@H](C)C(=O)O; Nle = CCCC[C@H](N)C(=O)O; Pra = C#CC[C@H](N)C(=O)O; Nva = CCC[C@H](N)C(=O)O

biological target: KRAS-G12D protein (Homo sapiens, UniProt P01116, G12D); assay: SOS-mediated nucleotide exchange assay (BODIPY-GDP / Tb-streptavidin TR-FRET); assay type: biochemical
Sequence (P01116 1-188 isoform P01116-2 G12D): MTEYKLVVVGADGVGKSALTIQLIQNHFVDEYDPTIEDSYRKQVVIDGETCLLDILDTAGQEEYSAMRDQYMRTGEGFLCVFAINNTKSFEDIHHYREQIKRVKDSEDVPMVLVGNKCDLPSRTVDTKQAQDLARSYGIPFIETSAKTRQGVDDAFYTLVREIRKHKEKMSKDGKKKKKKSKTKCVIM

Compound | EC50
C#CC[C@@H]1NC(=O)[C@H](CC2CC2)NC(=O)[C@H](Cc2cncnc2)NC(=O)[C@H](C)N(C)C(=O)[C@H](Cc2ccccc2)OC(=O)C23CC(CNC(=O)[C@H](Cc4ccccc4)N(C)C(=O)[C@H](CCC(C)C)NC1=O)(C2)C3 [compound 286, cyclo(FLac-NMeA-PyrimAla-cPrA-Pra-hL-NMeF-amBCP)] (cyclo([Ala(cPr)][Pra][hLeu][NMeF][X1][PhLac][NMeA][Ala(pyrimidin-5-yl)])) | 1990 nM
CCC[C@@H]1NC(=O)[C@H](Cc2ccc(OC)cc2)NC(=O)[C@H](CC(C)C)NC(=O)[C@H](Cc2cccnc2)NC(=O)[C@H](CCCNC(=N)N)NC(=O)[C@H](Cc2ccc(F)cc2)NC(=O)CSCCNC(=O)[C@H](Cc2ccccc2)N(C)C1=O [compound 87, cyclo(Phe4F-R-3Pal-L-TyrOMe-Nva-NMeF-Cysteamine-ClAc)] (cyclo([3Pal]LY(Me)[Nva][NMeF][NHCH2CH2SCH2CO][Phe(4-F)]R)) | 1600 nM
CC(C)CC[C@@H]1NC(=O)[C@H](Cc2cccc(F)c2)NC(=O)[C@H](CC2CCC2)NC(=O)[C@H](Cc2cncnc2)NC(=O)[C@H](C)N(C)C(=O)[C@H](Cc2ccccc2)OC(=O)C23CC(CNC(=O)[C@H](Cc4ccccc4)N(C)C1=O)(C2)C3 [compound 303, cyclo(FLac-NMeA-PyrimAla-cBuA-Phe3F-hL-NMeF-amBCP)] (cyclo([Cba][Phe(3-F)][hLeu][NMeF][X1][PhLac][NMeA][Ala(pyrimidin-5-yl)])) | 60.9 nM
CCCC[C@@H]1NC(=O)[C@H](Cc2ccccc2F)NC(=O)[C@H](CC2CCC2)NC(=O)[C@@H](Cc2cccnc2)NC(=O)[C@H](CCCNC(=N)N)NC(=O)[C@H](Cc2ccccc2)NC(=O)C23COC(CNC(=O)[C@H](Cc4cccnc4)N(C)C1=O)(C2)C3 [compound 106, cyclo(F-R-d3Pal-cBuA-Phe2F-Nle-NMe3Pal-amOBCH)] (cyclo(FR[d3Pal][Cba][Phe(2-F)][Nle][NMe3Pal][X61])) | 6820 nM
CC(C)CC[C@@H]1NC(=O)[C@H](Cc2c(F)cncc2F)NC(=O)[C@H](CC2CC2)NC(=O)[C@H](Cc2cncnc2)NC(=O)[C@H](C)N(C)C(=O)[C@H](Cc2ccccc2)OC(=O)C23CC(CNC(=O)[C@H](Cc4ccccc4)N(C)C1=O)(C2)C3 [compound 292, cyclo(FLac-NMeA-PyrimAla-cPrA-4Pal26F2-hL-NMeF-amBCP)] (cyclo([Ala(cPr)][X14][hLeu][NMeF][X1][PhLac][NMeA][Ala(pyrimidin-5-yl)])) | 64 nM
CCCC[C@@H]1NC(=O)[C@H](Cc2ccc(F)nc2)NC(=O)[C@H](C)N(C)C(=O)[C@H](Cc2ccccc2)OC(=O)C23CC(CNC(=O)[C@H](Cc4ccccc4)N(C)C(=O)[C@H](CCC)NC(=O)[C@H](Cc4ccccc4F)NC1=O)(C2)C3 [compound 234, cyclo(FLac-NMeA-4F3Pal-Nle-Phe2F-Nva-NMeF-amBCP)] (cyclo([NMeA][X25][Nle][Phe(2-F)][Nva][NMeF][X1][PhLac])) | 997 nM
CCCC[C@@H]1NC(=O)[C@H](Cc2cccnc2)NC(=O)[C@H](CCN=[N+]=[N-])N(C)C(=O)[C@H](Cc2ccccc2)OC(=O)C23CC(CNC(=O)[C@H](Cc4cccnc4)N(C)C(=O)[C@H](CCCC)NC(=O)[C@H](Cc4ccccc4F)OC1=O)(C2)C3 [compound 238, cyclo(FLac-NMeDabN3-3Pal-Nle-F2FLac-Nle-NMe3Pal-amBCP)] (cyclo([3Pal][Nle][X2][Nle][NMe3Pal][X1][PhLac][NMeAha])) | 5590 nM
CCCC[C@@H]1NC(=O)[C@H](Cc2cccnc2)NC(=O)[C@H](C)N(C)C(=O)[C@H](Cc2ccccc2)OC(=O)CSC[C@@](C)(C(N)=O)NC(=O)[C@H](Cc2cccnc2)N(C)C(=O)[C@H](CCCC)NC(=O)[C@H](Cc2ccccc2F)NC1=O [compound 398, cyclo(FLac-NMeA-3Pal-Nlc-Phe2F-Nle-NMe3Pal-aMeCl-ClAc)] ({CH2CO}-[PhLac][NMeA][3Pal][Nle][Phe(2-F)][Nle][NMe3Pal][αMeC]-NH2; thioether N-8) | 3.81 nM
CCCCC[C@@H]1NC(=O)[C@H](Cc2ccc(OC)cc2)NC(=O)[C@H](CC2CCC2)NC(=O)[C@H](Cc2ccc(NC(=N)N)cc2)NC(=O)[C@H](CCCNC(=N)N)NC(=O)[C@H](Cc2ccccc2)NC(=O)CSC[C@@](C)(C(N)=O)NC(=O)[C@H](Cc2ccccc2)N(C)C1=O [compound 346, cyclo(F-R-Phe4Gn-cBuA-TyrOMe-Ahp-NMeF-aMeCl-ClAc)] ({CH2CO}-FR[Phe(4-guanidino)][Cba]Y(Me)[Ahp(2)][NMeF][αMeC]-NH2; thioether N-8) | 1.24 nM
CCCC[C@@H]1NC(=O)[C@H](Cc2cccnc2)NC(=O)[C@H](CCCNC(=N)N)NC(=O)[C@H](Cc2ccccc2)NC(=O)CSC[C@@](C)(C(=O)N(C)C)NC(=O)[C@H](Cc2cccnc2)N(C)C(=O)[C@H](CCCC)NC(=O)[C@H](Cc2ccccc2F)NC1=O [compound 184, cyclo(F-R-3Pal-Nle-Phe2F-Nle-NMe3Pal-aMeC7-ClAc)] ({CH2CO}-FR[3Pal][Nle][Phe(2-F)][Nle][NMe3Pal][αMeC]-NMe2; thioether N-8) | 728 nM
CCCCC[C@@H]1NC(=O)[C@H](Cc2ccc(OC)cc2)NC(=O)[C@H](CC2CCC2)NC(=O)[C@H](Cc2ccc(NC(=N)N)cc2)NC(=O)CN(CCCNC(=N)N)C(=O)[C@H](Cc2ccccc2)NC(=O)CSC[C@@](C)(C(N)=O)NC(=O)[C@H](Cc2ccccc2)N(C)C1=O [compound 361, cyclo(F-NGnG-Phe4Gn-cBuA-TyrOMe-Ahp-NMeF-aMeCl-ClAc)] ({CH2CO}-F[Gly(N-(CH2)3-guanidino)][Phe(4-guanidino)][Cba]Y(Me)[Ahp(2)][NMeF][αMeC]-NH2; thioether N-8) | 37 nM
CCCCC[C@@H]1NC(=O)[C@H](Cc2ccc(OC)cc2)NC(=O)[C@H](CC2CCC2)NC(=O)[C@H](Cc2cccnc2)NC(=O)[C@H](CCCNC(=N)N)NC(=O)[C@H](Cc2ccccc2)NC(=O)CSC[C@@](C)(C(N)=O)NC(=O)[C@H](Cc2cn(C)cn2)N(C)C1=O [compound 378, cyclo(F-R-3Pal-cBuA-TyrOMe-Ahp-NMeHis1Me-aMeCl-ClAc)] ({CH2CO}-FR[3Pal][Cba]Y(Me)[Ahp(2)][NMeHis(τ-Me)][αMeC]-NH2; thioether N-8) | 45.2 nM
CCCC[C@@H]1NC(=O)[C@H](Cc2cccnc2)NC(=O)[C@H](C)N(C)C(=O)[C@H](Cc2ccc(O)cc2)NC(=O)C23CC(CNC(=O)[C@H](Cc4cccnc4)N(C)C(=O)[C@H](CCCC)NC(=O)[C@H](Cc4ccccc4F)NC1=O)(C2)C3 [compound 168, cyclo(Y-NMeA-3Pal-Nle-Phe2F-Nle-NMe3Pal-amBCP)] (cyclo(Y[NMeA][3Pal][Nle][Phe(2-F)][Nle][NMe3Pal][X1])) | 440 nM
CC(C)CC[C@@H]1NC(=O)[C@H](Cc2ccccc2F)NC(=O)[C@H](CC2CC2)NC(=O)[C@H](Cc2cncnc2)NC(=O)[C@H](C)N(C)C(=O)[C@H](Cc2ccccc2)OC(=O)C23CC(CNC(=O)[C@H](Cc4ccc(F)nc4)N(C)C1=O)(C2)C3 [compound 339, cyclo(FLac-NMeA-PyrimAla-cPrA-Phe2F-hL-NMe3Pal4F-amBCP)] (cyclo([Ala(cPr)][Phe(2-F)][hLeu][X8][X1][PhLac][NMeA][Ala(pyrimidin-5-yl)])) | 1 nM
CCCC[C@@H]1NC(=O)[C@H](Cc2cccnc2)NC(=O)[C@H](CC)N(C)C(=O)[C@H](Cc2ccccc2)OC(=O)C23CC(CNC(=O)[C@H](Cc4cccnc4)N(C)C(=O)[C@H](CCCC)NC(=O)[C@H](Cc4ccccc4F)NC1=O)(C2)C3 [compound 404, cyclo(FLac-NMeAbu-3Pal-Nle-Phe2F-Nle-NMe3Pal-amBCP)] (cyclo([3Pal][Nle][Phe(2-F)][Nle][NMe3Pal][X1][PhLac][NMeAbu])) | 29 nM
CCCC[C@@H]1NC(=O)[C@H](Cc2ccc(N(C)C(=N)NC)cc2)NC(=O)[C@H](C)N(C)C(=O)[C@H](Cc2ccccc2)OC(=O)CSC[C@@](C)(C(N)=O)NC(=O)[C@H](Cc2cccnc2)N(C)C(=O)[C@H](CCCC)NC(=O)[C@H](Cc2ccccc2F)NC1=O [compound 397, cyclo(FLac-NMeA-Phe4GnMeMe-Nle-Phe2F-Nle-NMe3Pal-aMeCl-ClAc)] ({CH2CO}-[PhLac][NMeA][X18][Nle][Phe(2-F)][Nle][NMe3Pal][αMeC]-NH2; thioether N-8) | 2.73 nM
C=C(C)C[C@@H]1NC(=O)[C@H](CCCC)NC(=O)[C@H](Cc2cccnc2)NC(=O)[C@H](CCCNC(=N)N)NC(=O)[C@H](Cc2ccccc2)NC(=O)CSC[C@@](C)(C(N)=O)NC(=O)[C@H](Cc2cccnc2)N(C)C(=O)[C@H](CCCC)NC1=O [compound 44, cyclo(F-R-3Pal-Nle-deHLeu-Nle-NMe3Pal-aMeCl-ClAc)] ({CH2CO}-FR[3Pal][Nle][Leu(4,5-dehydro)][Nle][NMe3Pal][αMeC]-NH2; thioether N-8) | 526 nM
C[C@H]1C(=O)N[C@@H](Cc2cncnc2)C(=O)N[C@@H](CC2CC2)C(=O)N[C@@H](Cc2ccccc2F)C(=O)NC2CC/C=C\CC[C@@H](C(=O)NCC34CC(C3)(C4)C(=O)O[C@@H](Cc3ccccc3)C(=O)N1C)N(C)C2=O [SEQ ID NO: 182, cyclo(FLac-NMeA-PyrimAla-cPrA-Phe2F-Hag-NMeHag-amBCP)] | 225 nM
CCCCC[C@@H]1NC(=O)[C@H](Cc2ccc(OC)cc2)NC(=O)[C@H](CC2CCC2)NC(=O)[C@H](Cc2ccc(N(C)C(=N)NC)cc2)NC(=O)[C@H](CCCNC)N(C)C(=O)[C@H](Cc2ccccc2)NC(=O)CSC[C@@](C)(C(N)=O)NC(=O)[C@H](Cc2ccc(C)nc2)N(C)C1=O [compound 395, cyclo(F-NMeOmMe-Phe4GnMeMe-cBuA-TyrOMe-Ahp-NMe3Pal4Me-aMeCl-ClAc)] ({CH2CO}-F[NMeOrn(Me)][X18][Cba]Y(Me)[Ahp(2)][NMe3Pal(6-Me)][αMeC]-NH2; thioether N-8) | 16 nM
C[C@H]1C(=O)N[C@@H](Cc2cncnc2)C(=O)N[C@@H](CC2CC2)C(=O)N[C@@H](Cc2ccccc2F)C(=O)N[C@@H](CCC(C)(C)F)C(=O)N(C)[C@@H](Cc2ccccc2)C(=O)NCC23CC(C2)(C3)C(=O)O[C@@H](Cc2ccccc2)C(=O)N1C [compound 277, cyclo(FLac-NMeA-PyrimAla-cPrA-Phe2F-hL3F-NMeF-amBCP)] (cyclo([Ala(cPr)][Phe(2-F)][X11][NMeF][X1][PhLac][NMeA][Ala(pyrimidin-5-yl)])) | 2 nM
